Measured values published in PubChem BioAssay (NCI).
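Results reflect a 48-hour exposure of cells in 96-well plates to compound at five concentrations. TGI marks complete inhibition of growth.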

Key:
Assay in all cases: growth of human tumour cells (NCI), 48 h
786-0 renal = test system: 786-0 renal
A498 renal = test system: A498 renal
A549 NSCLC = test system: A549 NSCLC
ACHN renal = test system: ACHN renal
BT-549 breast = test system: BT-549 breast
CAKI-1 renal = test system: CAKI-1 renal
COLO 205 colon = test system: COLO 205 colon
DU-145 prostate = test system: DU-145 prostate
EKVX NSCLC = test system: EKVX NSCLC
HCC-2998 colon = test system: HCC-2998 colon
HCT-116 colon = test system: HCT-116 colon
HCT-15 colon = test system: HCT-15 colon
HOP-62 NSCLC = test system: HOP-62 NSCLC
HOP-92 NSCLC = test system: HOP-92 NSCLC
HS 578T breast = test system: HS 578T breast
HT29 colon = test system: HT29 colon
IGROV1 ovarian = test system: IGROV1 ovarian
K-562 leukemia = test system: K-562 leukemia
KM12 colon = test system: KM12 colon
M14 melanoma = test system: M14 melanoma
MALME-3M melanoma = test system: MALME-3M melanoma
MCF7 breast = test system: MCF7 breast
MDA-MB-231 breast = test system: MDA-MB-231 breast
MDA-MB-435 = test system: MDA-MB-435
MDA-N = test system: MDA-N
MOLT-4 leukemia = test system: MOLT-4 leukemia
NCI-H23 lung = test system: NCI-H23 lung
NCI-H460 lung = test system: NCI-H460 lung
NCI-H522 lung = test system: NCI-H522 lung
NCI/ADR-RES ovarian = test system: NCI/ADR-RES ovarian
OVCAR-3 ovarian = test system: OVCAR-3 ovarian
OVCAR-4 ovarian = test system: OVCAR-4 ovarian
OVCAR-5 ovarian = test system: OVCAR-5 ovarian
OVCAR-8 ovarian = test system: OVCAR-8 ovarian
PC-3 prostate = test system: PC-3 prostate
RPMI-8226 leukemia = test system: RPMI-8226 leukemia
RXF 393 renal = test system: RXF 393 renal
SF-268 CNS = test system: SF-268 CNS
SF-295 CNS = test system: SF-295 CNS
SK-MEL-2 melanoma = test system: SK-MEL-2 melanoma
SK-MEL-28 melanoma = test system: SK-MEL-28 melanoma
SK-MEL-5 melanoma = test system: SK-MEL-5 melanoma
SK-OV-3 ovarian = test system: SK-OV-3 ovarian
SNB-19 CNS = test system: SNB-19 CNS
SNB-75 CNS = test system: SNB-75 CNS
SW-620 colon = test system: SW-620 colon
TK-10 renal = test system: TK-10 renal
U251 CNS = test system: U251 CNS
UACC-257 melanoma = test system: UACC-257 melanoma
UACC-62 melanoma = test system: UACC-62 melanoma
UO-31 renal = test system: UO-31 renal
CCRF-CEM leukemia = test system: CCRF-CEM leukemia
HL-60(TB) leukemia = test system: HL-60(TB) leukemia
LOX IMVI melanoma = test system: LOX IMVI melanoma
NCI-H226 lung = test system: NCI-H226 lung
SF-539 CNS = test system: SF-539 CNS
SN12C renal = test system: SN12C renal
SR leukemia = test system: SR leukemia
T-47D breast = test system: T-47D breast

## Cc1cc(-c2ccc(C(=O)O)[nH]2)on1
786-0 renal
  TGI: > 100 µM
A498 renal
  TGI: > 100 µM
A549 NSCLC
  TGI: > 100 µM
ACHN renal
  TGI: > 100 µM
BT-549 breast
  TGI: > 100 µM
CAKI-1 renal
  TGI: > 100 µM
COLO 205 colon
  TGI: > 100 µM
DU-145 prostate
  TGI: > 100 µM
EKVX NSCLC
  TGI: > 100 µM
HCC-2998 colon
  TGI: > 100 µM
HCT-116 colon
  TGI: > 100 µM
HCT-15 colon
  TGI: > 100 µM
HOP-62 NSCLC
  TGI: > 100 µM
HOP-92 NSCLC
  TGI: > 100 µM
HS 578T breast
  TGI: > 100 µM
HT29 colon
  TGI: > 100 µM
IGROV1 ovarian
  TGI: > 100 µM
K-562 leukemia
  TGI: > 100 µM
KM12 colon
  TGI: > 100 µM
M14 melanoma
  TGI: > 100 µM
MALME-3M melanoma
  TGI: > 100 µM
MCF7 breast
  TGI: > 100 µM
MDA-MB-231 breast
  TGI: > 100 µM
MDA-MB-435
  TGI: > 100 µM
MDA-N
  TGI: 23.7 µM
MOLT-4 leukemia
  TGI: > 100 µM
NCI-H23 lung
  TGI: > 100 µM
NCI-H460 lung
  TGI: > 100 µM
NCI-H522 lung
  TGI: > 100 µM
NCI/ADR-RES ovarian
  TGI: 75.9 µM
OVCAR-3 ovarian
  TGI: > 100 µM
OVCAR-4 ovarian
  TGI: > 100 µM
OVCAR-5 ovarian
  TGI: > 100 µM
OVCAR-8 ovarian
  TGI: > 100 µM
PC-3 prostate
  TGI: > 100 µM
RPMI-8226 leukemia
  TGI: > 100 µM
RXF 393 renal
  TGI: > 100 µM
SF-268 CNS
  TGI: > 100 µM
SF-295 CNS
  TGI: > 100 µM
SK-MEL-2 melanoma
  TGI: > 100 µM
SK-MEL-28 melanoma
  TGI: > 100 µM
SK-MEL-5 melanoma
  TGI: > 100 µM
SK-OV-3 ovarian
  TGI: > 100 µM
SNB-19 CNS
  TGI: > 100 µM
SNB-75 CNS
  TGI: > 100 µM
SW-620 colon
  TGI: > 100 µM
TK-10 renal
  TGI: > 100 µM
U251 CNS
  TGI: > 100 µM
UACC-257 melanoma
  TGI: > 100 µM
UACC-62 melanoma
  TGI: > 100 µM
UO-31 renal
  TGI: > 100 µM

## COc1c2c(c(OC)c3c1c(=O)c1ccccc1n3C)OCO2
786-0 renal
  TGI: > 100 µM
A498 renal
  TGI: > 100 µM
A549 NSCLC
  TGI: > 100 µM
ACHN renal
  TGI: > 100 µM
BT-549 breast
  TGI: > 100 µM
CAKI-1 renal
  TGI: > 100 µM
CCRF-CEM leukemia
  TGI: > 31.6 µM
COLO 205 colon
  TGI: 53.9 µM
DU-145 prostate
  TGI: > 100 µM
EKVX NSCLC
  TGI: > 100 µM
HCC-2998 colon
  TGI: > 100 µM
HCT-116 colon
  TGI: > 91.6 µM
HCT-15 colon
  TGI: > 100 µM
HL-60(TB) leukemia
  TGI: > 25.6 µM
HOP-62 NSCLC
  TGI: > 100 µM
HOP-92 NSCLC
  TGI: > 100 µM
HS 578T breast
  TGI: > 100 µM
HT29 colon
  TGI: > 100 µM
IGROV1 ovarian
  TGI: > 100 µM
K-562 leukemia
  TGI: > 100 µM
KM12 colon
  TGI: > 41.9 µM
LOX IMVI melanoma
  TGI: > 100 µM
M14 melanoma
  TGI: > 100 µM
MCF7 breast
  TGI: > 100 µM
MDA-MB-231 breast
  TGI: > 31.6 µM
MDA-MB-435
  TGI: 6.46 µM
MOLT-4 leukemia
  TGI: > 31.6 µM
NCI-H226 lung
  TGI: > 100 µM
NCI-H23 lung
  TGI: > 100 µM
NCI-H460 lung
  TGI: 51.2 µM
NCI-H522 lung
  TGI: > 43.1 µM
NCI/ADR-RES ovarian
  TGI: > 100 µM
OVCAR-3 ovarian
  TGI: > 100 µM
OVCAR-4 ovarian
  TGI: > 100 µM
OVCAR-5 ovarian
  TGI: > 100 µM
OVCAR-8 ovarian
  TGI: > 100 µM
PC-3 prostate
  TGI: > 100 µM
RPMI-8226 leukemia
  TGI: > 100 µM
RXF 393 renal
  TGI: > 100 µM
SF-268 CNS
  TGI: > 100 µM
SF-295 CNS
  TGI: > 100 µM
SF-539 CNS
  TGI: > 90.7 µM
SK-MEL-2 melanoma
  TGI: > 100 µM
SK-MEL-28 melanoma
  TGI: > 100 µM
SK-MEL-5 melanoma
  TGI: 15.7 µM
SK-OV-3 ovarian
  TGI: > 100 µM
SN12C renal
  TGI: > 100 µM
SNB-19 CNS
  TGI: > 100 µM
SNB-75 CNS
  TGI: > 100 µM
SR leukemia
  TGI: > 29.7 µM
SW-620 colon
  TGI: > 100 µM
T-47D breast
  TGI: > 100 µM
TK-10 renal
  TGI: > 100 µM
U251 CNS
  TGI: > 100 µM
UACC-257 melanoma
  TGI: > 100 µM
UACC-62 melanoma
  TGI: > 100 µM
UO-31 renal
  TGI: > 100 µM
